Experimental data reported in ChEMBL document CHEMBL1158844, “Two new isoflavones from Ceiba pentandra and their effect on cyclooxygenase-catalyzed prostaglandin biosynthesis” (J Nat Prod, 1998).

Legend:
[1] = molecular target: T1, Prostaglandin G/H synthase 1 (Bos taurus, UniProt O62664); assay: Inhibition of bovine seminal vesicle microsomal COX1-mediated prostaglandin production; format: microsomes
T1 sequence (O62664 whole entry): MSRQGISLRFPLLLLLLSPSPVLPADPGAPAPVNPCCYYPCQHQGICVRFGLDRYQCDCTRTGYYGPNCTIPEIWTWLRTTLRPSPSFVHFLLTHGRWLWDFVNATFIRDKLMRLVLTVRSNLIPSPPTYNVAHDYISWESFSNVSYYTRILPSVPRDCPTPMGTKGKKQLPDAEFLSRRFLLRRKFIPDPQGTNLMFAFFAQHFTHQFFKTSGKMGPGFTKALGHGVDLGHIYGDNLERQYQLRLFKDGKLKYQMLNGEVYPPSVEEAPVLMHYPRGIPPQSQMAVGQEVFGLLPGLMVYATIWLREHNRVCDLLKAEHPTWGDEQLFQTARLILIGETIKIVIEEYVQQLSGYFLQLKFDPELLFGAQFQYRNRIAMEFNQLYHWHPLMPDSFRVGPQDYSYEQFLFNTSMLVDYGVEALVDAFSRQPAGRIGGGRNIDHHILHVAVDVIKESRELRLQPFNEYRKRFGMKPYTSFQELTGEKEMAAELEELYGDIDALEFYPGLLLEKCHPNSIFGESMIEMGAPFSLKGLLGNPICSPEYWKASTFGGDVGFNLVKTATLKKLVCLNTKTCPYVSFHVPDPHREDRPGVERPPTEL

[2] = molecular target: T2, Prostaglandin G/H synthase 2 (Ovis aries, UniProt P79208); assay: Inhibition of sheep placental cotyledons COX2-mediated prostaglandin production
T2 sequence (P79208 whole entry): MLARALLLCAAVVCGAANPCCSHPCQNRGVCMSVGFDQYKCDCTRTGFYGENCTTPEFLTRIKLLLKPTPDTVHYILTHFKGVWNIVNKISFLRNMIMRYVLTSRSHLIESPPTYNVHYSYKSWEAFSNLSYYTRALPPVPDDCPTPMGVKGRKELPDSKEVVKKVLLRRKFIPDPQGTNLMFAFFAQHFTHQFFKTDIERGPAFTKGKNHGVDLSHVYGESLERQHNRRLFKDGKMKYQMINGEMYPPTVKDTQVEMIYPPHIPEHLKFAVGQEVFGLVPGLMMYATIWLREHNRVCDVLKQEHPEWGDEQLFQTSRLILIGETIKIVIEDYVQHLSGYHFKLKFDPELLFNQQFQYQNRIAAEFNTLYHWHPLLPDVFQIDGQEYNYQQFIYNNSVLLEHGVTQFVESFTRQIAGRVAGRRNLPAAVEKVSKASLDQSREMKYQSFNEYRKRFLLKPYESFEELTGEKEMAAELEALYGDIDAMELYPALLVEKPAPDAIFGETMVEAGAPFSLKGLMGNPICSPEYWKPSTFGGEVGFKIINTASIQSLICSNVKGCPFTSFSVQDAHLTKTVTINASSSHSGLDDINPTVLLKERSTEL

IC50 [1] [µM] | IC50 [2] [µM] | SMILES
381 | 1200 | COc1cc(O)c2c(=O)c(-c3cc(OC)c(OC)c(O[C@@H]4O[C@H](CO)[C@@H](O)[C@H](O)[C@H]4O)c3)coc2c1
97 | 900 | COc1cc(O)c2c(=O)c(-c3cc(O)c(OC)c(OC)c3)coc2c1

SMILES | IC50 [1] [µM] | IC50 [2] [µM]
Oc1cc(O)c2c(c1)O[C@H](c1ccc(O)c(O)c1)[C@@H](O)C2 [CIANIDANOL] | 80 | 
